Assay results: the supplement of paper PMC4862054

The compounds below were run on CAL-51 (assay: normalised response (% of control), CellTiter-Glo; higher = more viable cells (100 = DMSO, 0 = benzethonium chloride kill control)). Settings: incubation time: 72 h.
Summary of the method: (§1)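 A 20 µl suspension of breast cancer cells was seeded into each well of 384-well plates containing compound at 5 concentrations in 10-fold steps over a compound-specific 10,000-fold range. After 72 h incubation, CellTox Green fluorescence (485/520 nm) was read first, and CellTiter-Glo luminescence was read after 10 min at room temperature. Each plate was normalised against 0.1 % DMSO (100) and a positive kill control (0), and each value is the normalised signal at one concentration.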

Question: C[C@]1(O)C[C@@H](c2nc(-c3ccc4ccc(-c5ccccc5)nc4c3)c3c(N)nccn32)C1 [Linsitinib] (1000 nM) was tested. Which normalised response did it give?
Answer: 94%

Question: How did the normalised response turn out when Cc1ccc([N+](=O)[O-])cc1S(=O)(=O)N(C)/N=C/c1cnc2ccc(Br)cn12 [PIK-75] (1000 nM) was run?
Answer: 11.5%

Question: CC(=O)c1c(C)c2cnc(Nc3ccc(N4CCNCC4)cn3)nc2n(C2CCCC2)c1=O [Palbociclib] (1000 nM) was tested. Which normalised response did it give?
Answer: 103%

Question: Which normalised response does the source give for COc1cc(F)c(F)c(Nc2ccc(I)cc2F)c1NS(=O)(=O)C1(C[C@H](O)CO)CC1 [Refametinib] (1000 nM) here?
Answer: 99.3%

Each compound was assayed on BT-549 in the same assay as above. Settings: incubation time: 72 h.
Summary of the method: as §1

Question: Which normalised response does the source give for C[C@]1(O)C[C@@H](c2nc(-c3ccc4ccc(-c5ccccc5)nc4c3)c3c(N)nccn32)C1 [Linsitinib] (1000 nM) here?
Answer: 88.6%

Question: Which normalised response does the source give for Cc1ccc([N+](=O)[O-])cc1S(=O)(=O)N(C)/N=C/c1cnc2ccc(Br)cn12 [PIK-75] (1000 nM) here?
Answer: 2.37%

Question: For CC(=O)c1c(C)c2cnc(Nc3ccc(N4CCNCC4)cn3)nc2n(C2CCCC2)c1=O [Palbociclib] (1000 nM), which normalised response is on record?
Answer: 102%

Question: COc1cc(F)c(F)c(Nc2ccc(I)cc2F)c1NS(=O)(=O)C1(C[C@H](O)CO)CC1 [Refametinib] (1000 nM) was tested. Which normalised response did it give?
Answer: 95.7%

Each compound was assayed on CAL-120 in the same assay as above. Settings: incubation time: 72 h.
Summary of the method: as §1

Question: With C[C@]1(O)C[C@@H](c2nc(-c3ccc4ccc(-c5ccccc5)nc4c3)c3c(N)nccn32)C1 [Linsitinib] (1000 nM) as the compound, how does the normalised response read?
Answer: 88%

Question: Which normalised response does the source give for Cc1ccc([N+](=O)[O-])cc1S(=O)(=O)N(C)/N=C/c1cnc2ccc(Br)cn12 [PIK-75] (1000 nM) here?
Answer: 28.5%

Question: For CC(=O)c1c(C)c2cnc(Nc3ccc(N4CCNCC4)cn3)nc2n(C2CCCC2)c1=O [Palbociclib] (1000 nM), which normalised response is on record?
Answer: 84.6%

Question: With COc1cc(F)c(F)c(Nc2ccc(I)cc2F)c1NS(=O)(=O)C1(C[C@H](O)CO)CC1 [Refametinib] (1000 nM) as the compound, how does the normalised response read?
Answer: 66.1%

The compounds below were run on MDA-MB-468 in the same assay as above. Settings: incubation time: 72 h.
Summary of the method: as §1

Question: For C[C@]1(O)C[C@@H](c2nc(-c3ccc4ccc(-c5ccccc5)nc4c3)c3c(N)nccn32)C1 [Linsitinib] (1000 nM), which normalised response is on record?
Answer: 79.6%

Question: Cc1ccc([N+](=O)[O-])cc1S(=O)(=O)N(C)/N=C/c1cnc2ccc(Br)cn12 [PIK-75] (1000 nM) was tested. Which normalised response did it give?
Answer: 2.19%

Question: CC(=O)c1c(C)c2cnc(Nc3ccc(N4CCNCC4)cn3)nc2n(C2CCCC2)c1=O [Palbociclib] (1000 nM) was tested. Which normalised response did it give?
Answer: 86.7%

Question: How did the normalised response turn out when COc1cc(F)c(F)c(Nc2ccc(I)cc2F)c1NS(=O)(=O)C1(C[C@H](O)CO)CC1 [Refametinib] (1000 nM) was run?
Answer: 72.7%

Each compound was assayed on DU-4475 in the same assay as above. Settings: incubation time: 72 h.
Summary of the method: as §1

Question: C[C@]1(O)C[C@@H](c2nc(-c3ccc4ccc(-c5ccccc5)nc4c3)c3c(N)nccn32)C1 [Linsitinib] (1000 nM) was tested. Which normalised response did it give?
Answer: 92.5%

Question: For Cc1ccc([N+](=O)[O-])cc1S(=O)(=O)N(C)/N=C/c1cnc2ccc(Br)cn12 [PIK-75] (1000 nM), which normalised response is on record?
Answer: 4.76%

Question: CC(=O)c1c(C)c2cnc(Nc3ccc(N4CCNCC4)cn3)nc2n(C2CCCC2)c1=O [Palbociclib] (1000 nM) was tested. Which normalised response did it give?
Answer: 94.4%

Question: With COc1cc(F)c(F)c(Nc2ccc(I)cc2F)c1NS(=O)(=O)C1(C[C@H](O)CO)CC1 [Refametinib] (1000 nM) as the compound, how does the normalised response read?
Answer: 0.17%

What follows are compounds tested on HCC1599 in the same assay as above. Settings: incubation time: 72 h.
Summary of the method: as §1

Question: For C[C@]1(O)C[C@@H](c2nc(-c3ccc4ccc(-c5ccccc5)nc4c3)c3c(N)nccn32)C1 [Linsitinib] (1000 nM), which normalised response is on record?
Answer: 92%

Question: How did the normalised response turn out when Cc1ccc([N+](=O)[O-])cc1S(=O)(=O)N(C)/N=C/c1cnc2ccc(Br)cn12 [PIK-75] (1000 nM) was run?
Answer: 6.38%

Question: How did the normalised response turn out when CC(=O)c1c(C)c2cnc(Nc3ccc(N4CCNCC4)cn3)nc2n(C2CCCC2)c1=O [Palbociclib] (1000 nM) was run?
Answer: 91.6%

Question: How did the normalised response turn out when COc1cc(F)c(F)c(Nc2ccc(I)cc2F)c1NS(=O)(=O)C1(C[C@H](O)CO)CC1 [Refametinib] (1000 nM) was run?
Answer: 116%

The compounds below were run on MCF-10A in the same assay as above. Settings: incubation time: 72 h.
Summary of the method: as §1

Question: Which normalised response does the source give for C[C@]1(O)C[C@@H](c2nc(-c3ccc4ccc(-c5ccccc5)nc4c3)c3c(N)nccn32)C1 [Linsitinib] (1000 nM) here?
Answer: 48.5%

Question: Which normalised response does the source give for Cc1ccc([N+](=O)[O-])cc1S(=O)(=O)N(C)/N=C/c1cnc2ccc(Br)cn12 [PIK-75] (1000 nM) here?
Answer: 1.81%

Question: With CC(=O)c1c(C)c2cnc(Nc3ccc(N4CCNCC4)cn3)nc2n(C2CCCC2)c1=O [Palbociclib] (1000 nM) as the compound, how does the normalised response read?
Answer: 82.5%

Question: COc1cc(F)c(F)c(Nc2ccc(I)cc2F)c1NS(=O)(=O)C1(C[C@H](O)CO)CC1 [Refametinib] (1000 nM) was tested. Which normalised response did it give?
Answer: 28.3%

The compounds below were run on CAL-148 in the same assay as above. Settings: incubation time: 72 h.
Summary of the method: as §1

Question: With C[C@]1(O)C[C@@H](c2nc(-c3ccc4ccc(-c5ccccc5)nc4c3)c3c(N)nccn32)C1 [Linsitinib] (1000 nM) as the compound, how does the normalised response read?
Answer: 101%

Question: Which normalised response does the source give for Cc1ccc([N+](=O)[O-])cc1S(=O)(=O)N(C)/N=C/c1cnc2ccc(Br)cn12 [PIK-75] (1000 nM) here?
Answer: 48.8%

Question: With CC(=O)c1c(C)c2cnc(Nc3ccc(N4CCNCC4)cn3)nc2n(C2CCCC2)c1=O [Palbociclib] (1000 nM) as the compound, how does the normalised response read?
Answer: 86.2%

Question: How did the normalised response turn out when COc1cc(F)c(F)c(Nc2ccc(I)cc2F)c1NS(=O)(=O)C1(C[C@H](O)CO)CC1 [Refametinib] (1000 nM) was run?
Answer: 89.2%

What follows are compounds tested on BT-474 in the same assay as above. Settings: incubation time: 72 h.
Summary of the method: as §1

Question: With C[C@]1(O)C[C@@H](c2nc(-c3ccc4ccc(-c5ccccc5)nc4c3)c3c(N)nccn32)C1 [Linsitinib] (1000 nM) as the compound, how does the normalised response read?
Answer: 78%

Question: Cc1ccc([N+](=O)[O-])cc1S(=O)(=O)N(C)/N=C/c1cnc2ccc(Br)cn12 [PIK-75] (1000 nM) was tested. Which normalised response did it give?
Answer: 9.85%

Question: CC(=O)c1c(C)c2cnc(Nc3ccc(N4CCNCC4)cn3)nc2n(C2CCCC2)c1=O [Palbociclib] (1000 nM) was tested. Which normalised response did it give?
Answer: 78.1%

Question: COc1cc(F)c(F)c(Nc2ccc(I)cc2F)c1NS(=O)(=O)C1(C[C@H](O)CO)CC1 [Refametinib] (1000 nM) was tested. Which normalised response did it give?
Answer: 62.4%

The compounds below were run on MFM-223 in the same assay as above. Settings: incubation time: 72 h.
Summary of the method: as §1

Question: Which normalised response does the source give for C[C@]1(O)C[C@@H](c2nc(-c3ccc4ccc(-c5ccccc5)nc4c3)c3c(N)nccn32)C1 [Linsitinib] (1000 nM) here?
Answer: 94.5%

Question: Which normalised response does the source give for Cc1ccc([N+](=O)[O-])cc1S(=O)(=O)N(C)/N=C/c1cnc2ccc(Br)cn12 [PIK-75] (1000 nM) here?
Answer: 7.31%

Question: How did the normalised response turn out when CC(=O)c1c(C)c2cnc(Nc3ccc(N4CCNCC4)cn3)nc2n(C2CCCC2)c1=O [Palbociclib] (1000 nM) was run?
Answer: 72.6%

Question: How did the normalised response turn out when COc1cc(F)c(F)c(Nc2ccc(I)cc2F)c1NS(=O)(=O)C1(C[C@H](O)CO)CC1 [Refametinib] (1000 nM) was run?
Answer: 75.9%

These compounds were tested on MDA-MB-453 in the same assay as above. Settings: incubation time: 72 h.
Summary of the method: as §1

Question: With C[C@]1(O)C[C@@H](c2nc(-c3ccc4ccc(-c5ccccc5)nc4c3)c3c(N)nccn32)C1 [Linsitinib] (1000 nM) as the compound, how does the normalised response read?
Answer: 83.8%

Question: Which normalised response does the source give for Cc1ccc([N+](=O)[O-])cc1S(=O)(=O)N(C)/N=C/c1cnc2ccc(Br)cn12 [PIK-75] (1000 nM) here?
Answer: 4.17%

Question: With CC(=O)c1c(C)c2cnc(Nc3ccc(N4CCNCC4)cn3)nc2n(C2CCCC2)c1=O [Palbociclib] (1000 nM) as the compound, how does the normalised response read?
Answer: 102%

Question: For COc1cc(F)c(F)c(Nc2ccc(I)cc2F)c1NS(=O)(=O)C1(C[C@H](O)CO)CC1 [Refametinib] (1000 nM), which normalised response is on record?
Answer: 96.3%

These compounds were tested on HCC1937 in the same assay as above. Settings: incubation time: 72 h.
Summary of the method: as §1

Question: How did the normalised response turn out when C[C@]1(O)C[C@@H](c2nc(-c3ccc4ccc(-c5ccccc5)nc4c3)c3c(N)nccn32)C1 [Linsitinib] (1000 nM) was run?
Answer: 98.9%
